Biological target: T1, Estrogen Receptor Alpha (ERα) (Homo sapiens, UniProt P03372, Y537S)
T1 sequence (P03372 282-595 Y537S): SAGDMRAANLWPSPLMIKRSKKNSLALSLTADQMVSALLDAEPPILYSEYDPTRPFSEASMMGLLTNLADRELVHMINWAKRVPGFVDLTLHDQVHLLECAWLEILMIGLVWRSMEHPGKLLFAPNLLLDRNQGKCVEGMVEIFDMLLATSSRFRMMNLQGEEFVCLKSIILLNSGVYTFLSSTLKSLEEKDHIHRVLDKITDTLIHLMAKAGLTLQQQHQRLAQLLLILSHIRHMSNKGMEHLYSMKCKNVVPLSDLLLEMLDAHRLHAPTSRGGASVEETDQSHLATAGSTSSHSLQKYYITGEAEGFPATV
Assay: LanthaScreen TR-FRET competitive binding assay with purified GST-ERα LBD

IC50: 29.5 nM
SMILES: CCC(=C(c1ccc(/C=C/C(=O)O)cc1)c1ccc(B(O)O)cc1)c1ccccc1 [GLL398]

From paper PMC7069796 (Breast cancer research and treatment, 2020)
